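Tested at 5 concentrations; 48 h exposure; 96-well plates; endpoints linearly interpolated, else capped at highest concentration. TGI is the concentration that stops growth completely.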
Key:
Assay in all cases: growth of human tumour cells (NCI), 48 h
MDA-N = tested on: MDA-N
NCI-H23 lung = tested on: NCI-H23 lung
KM12 colon = tested on: KM12 colon
A549 NSCLC = tested on: A549 NSCLC
UACC-257 melanoma = tested on: UACC-257 melanoma
PC-3 prostate = tested on: PC-3 prostate
SK-OV-3 ovarian = tested on: SK-OV-3 ovarian
SR leukemia = tested on: SR leukemia
HT29 colon = tested on: HT29 colon
DU-145 prostate = tested on: DU-145 prostate
SK-MEL-2 melanoma = tested on: SK-MEL-2 melanoma
M14 melanoma = tested on: M14 melanoma
EKVX NSCLC = tested on: EKVX NSCLC
TK-10 renal = tested on: TK-10 renal

`Cc1c(C(=O)c2ccccc2)[n+](=O)c2cc(Cl)c(Cl)cc2n1[O-]` showed a TGI (MDA-N) of 25.9 µM, a TGI (NCI-H23 lung) of 11.6 µM and a TGI (KM12 colon) of 23 µM. The TGI (A549 NSCLC) was 27.5 µM, the TGI (UACC-257 melanoma) was 16.5 µM and the TGI (PC-3 prostate) was 59.5 µM. It also gave a TGI (SK-OV-3 ovarian) of 41.4 µM, a TGI (SR leukemia) of 3.32 µM and a TGI (HT29 colon) of 28.7 µM. It also gave a TGI (DU-145 prostate) of 31.5 µM, a TGI (SK-MEL-2 melanoma) of 21.3 µM and a TGI (M14 melanoma) of 7.7 µM. For the same compound, the TGI (EKVX NSCLC) was 26.3 µM and the TGI (TK-10 renal) was 23.9 µM.
With `C/C(O)=C(\C=N\C(=S)N=Nc1c(O)[nH]c2ccccc12)C(=O)Nc1ccccc1C` the TGI (MDA-N) was > 100 µM, the TGI (NCI-H23 lung) was > 100 µM and the TGI (KM12 colon) was > 100 µM. For the same compound, the TGI (A549 NSCLC) was > 100 µM, the TGI (UACC-257 melanoma) was > 100 µM and the TGI (SK-OV-3 ovarian) was > 100 µM. The TGI (HT29 colon) was > 100 µM, the TGI (DU-145 prostate) was > 100 µM and the TGI (SK-MEL-2 melanoma) was > 100 µM. The TGI (M14 melanoma) was > 100 µM, the TGI (EKVX NSCLC) was > 100 µM and the TGI (TK-10 renal) was > 100 µM.
`C[N+](C)(C)CC(=O)N/N=C(\Cc1nc2ccc([N+](=O)[O-])cc2[nH]c1=O)C(=O)Nc1nc2ccc([N+](=O)[O-])cc2s1` was tested, and the TGI (NCI-H23 lung) was > 100 µM, the TGI (KM12 colon) was > 100 µM and the TGI (A549 NSCLC) was > 100 µM. The TGI (UACC-257 melanoma) was > 100 µM, the TGI (PC-3 prostate) was > 100 µM and the TGI (SK-OV-3 ovarian) was > 100 µM. The TGI (SR leukemia) was > 100 µM, the TGI (HT29 colon) was > 100 µM and the TGI (DU-145 prostate) was > 100 µM. For the same compound, the TGI (SK-MEL-2 melanoma) was > 100 µM, the TGI (M14 melanoma) was > 100 µM and the TGI (EKVX NSCLC) was > 100 µM. The TGI (TK-10 renal) was > 100 µM.
With `CCOC(=O)CN1C(=O)NC(C)(c2ccccc2)C1=O` (stereo unspecified) the TGI (NCI-H23 lung) was > 100 µM, the TGI (KM12 colon) was > 100 µM and the TGI (A549 NSCLC) was > 100 µM. The TGI (UACC-257 melanoma) was > 100 µM, the TGI (PC-3 prostate) was > 100 µM and the TGI (SK-OV-3 ovarian) was > 100 µM. For the same compound, the TGI (HT29 colon) was > 100 µM, the TGI (DU-145 prostate) was > 100 µM and the TGI (SK-MEL-2 melanoma) was > 100 µM. For the same compound, the TGI (M14 melanoma) was > 100 µM, the TGI (EKVX NSCLC) was > 100 µM and the TGI (TK-10 renal) was > 100 µM.
